One assay concerns pregnant CD-1 mice. The experiment in a line: LPS-induced preterm birth (PTB) model in mice. The assay is classed as in vivo, mouse. Further details: key to In vivo PTB (heatmap grade of efficacy): 0: No effect; No effect 01234 Maximum inhibition/efficacy; No effect 01234 Maximum inhibition/efficacy; No effect 01234 Maximum inhibition/efficacy; 4: Maximum inhibition/efficacy. The following applies: for In vivo PTB (heatmap grade of efficacy): LPS 10 μg i.p. at G16.5, peptide 2 mg/kg/day s.c. every 12 h; for Activity in delaying labor in the PTB model: LPS i.p. at G16.5, 2 mg/kg/day s.c. How it is done:
Timed-pregnant CD-1 mice at 16.5 days of gestation (G16.5) were anesthetized with 2% isoflurane and received an intraperitoneal injection of LPS (n = 4 per group, a single dose of 10 μg) (Nadeau-Vallée et al., [2015], and Kakinuma et al., [1997]). A dosage of 2 mg/kg/day of peptide 1, 5, or 6 or vehicle was injected subcutaneously in the neck, every 12 h until delivery. On G16.5, a dose of 1 mg/kg was injected 30 min before stimulation with LPS (to allow distribution of drugs to target tissues) and 1 mg/kg was injected 12 h after stimulation (n = 4 each treatment). Mice delivery was assessed every hour until term (G19–G19.5). A mouse is considered as delivering prematurely if the first pup is delivered earlier than G18.5.
Figure 9 The effects of peptides 1, 5, and 6 on prevention of PTB. (A) Schematic of the CD-1 mouse PTB model. In brief, pregnant dams on day 16.5 of gestation (G16.5) were subcutaneously pretreated with peptides 1, 5, and 6 or vehicle, followed by LPS, and observed for delivery of pups. A dam was considered as delivering preterm if at least one pup was delivered before G18.5. (B) The rates of PTB in dams treated with peptides 1, 5, and 6 are grouped into (3R)- (left) and (3S)- (right) derivatives; n = 4–5 dams per treatment group.

In another assay the test system is retinal microglia. Briefly: Retinal microglial activation and density (Iba-1 staining) in the OIR model. Format: in vivo. To be noted: OIR rat pups, 2 mg/kg/day i.p.; for Effect on microglial activation / morphology: Iba-1 immunohistochemistry. From the text:
On P5, litters were transferred to a controlled hyperoxic environment (Biospherix OxyCycler A84XOV) and maintained at 80 ± 1% O2, which is used to induce vaso-obliteration of the retinal vasculature. At this timepoint, the vasculature is immature and particularly susceptible to […] insults resulting in vaso-obliteration, a defining characteristic of the early stage of retinopathies in premature infants (Garner and Ashton, [1971]). Control litters were not exposed to hyperoxia and were kept in standard conditions with room air (21% O2). To control for the effects of hyperoxia on the lactation of the dams, dams of hyperoxic litters were switched with dams of control litters on P8.
In litters exposed to hyperoxia, pups were randomized to receive phosphate-buffered saline (PBS) vehicle, 2 mg/kg/day of peptides 1, 5, or 6 or 3 mg/kg/day of Kineret from P5 to P10. These doses were determined from our previous study (Rivera et al., [2013]) and administered in twice-daily intra-peritoneal injections titrated to 20 μL per injection with 28-gauge insulin syringes. A total of 6–8 pups were used for each treatment group.
Retinas were treated at room temperature for 1 h with a blocking solution consisting of 1% bovine serum albumin (BSA), 1% normal goat serum, 0.1% Triton X-100 and 0.05% Tween-20 in PBS. The retinas were then double-labeled overnight at 4°C with gentle shaking in an antibody solution consisting of 1 mM CaCl2, 1% Triton X-100, 1% TRITC-conjugated lectin cell endothelial marker from Bandeiraea simplicifolia (Sigma-Aldrich, St Louis, MO) and a 1:500 dilution of rabbit anti-ionized calcium-binding adapter molecule (Iba)-1 antibody (Wako Chemicals USA) in PBS. The retinas were then washed thrice with PBS and incubated with a secondary antibody solution consisting of 1% BSA, 0.1% Triton X-100, 0.05% Tween-20 and 1:500 Alexa-594-conjugated donkey anti-rabbit IgG (ThermoFisher Scientific, Rockford, IL) in PBS for 2 h at room temperature. Retinas were washed thrice with PBS and then flat-mounted onto glass slides with coverslips and Fluoro-Gel mounting medium (Electron Microscopy Sciences, Hatfield, PA).
For assessment of vaso-obliteration, retinas were imaged using an epifluorescence microscope at 10X magnification (Zeiss AxioImager Z2) and version 4.8 of the AxioVision software. Images were captured and stitched together using the software's MosaiX feature. Iba-1 staining was assessed with the same microscope at 20X magnification, and a total of 4 fields per retina were imaged halfway between the optic nerve and the edge of the retina.
Representative images of Iba-1 staining were taken using a laser scanning confocal microscope (Olympus IX81 with Fluoview FV1000 Scanhead) with the Fluoview Software at 30X magnification.
The FIJI software was used to the quantify the area of vaso-obliteration in each retina, expressed as a percentage of the area of the whole retina. The number of Iba-1-positive cells was counted using the cell counter plug-in in FIJI, and the average of cell counts in 4 fields per retina was calculated.
Figure 11 The effects of peptides 1, 5, and 6 on retinal microglial activation and density. Retinas were obtained for immunohistochemistry from rat pups treated with the OIR protocol, and incubated with rabbit anti-iba-1 antibody, followed by donkey anti-rabbit antibody conjugated to Alexa 594. (A) Representative confocal images of retinal microglia at 30X magnification: scale bar 100 μm. (B) Epifluorescence microscopy images at 20 × magnification of retinal microglial density quantified using ImageJ: 4 images per retina were taken at a distance halfway between the optic nerve and the peripheral edge of the retina; n = 5–7 for peptide 1, 5, and 6, and Kineret; n = 8–10 for normoxia and vehicle; ^*p < 0.05, ^****p < 0.0001 relative to the vehicle group. Treatment groups that are not labeled with asterisks are statistically non-significant compared to the vehicle group.

Assay [1] relates to thymocyte TF-1 proliferation. The following applies: ref Jamieson et al., 2009; Boutard et al., 2011; cited from earlier work. From the text:
Conformational restriction of natural peptides has been used to identify active geometry and to enhance therapeutic potential by mitigating issues such as low oral availability and poor metabolic stability (Carney et al., [2014]; Rubin and Qvit, [2016]; Lubell, [2017]). Since pioneering studies by Freidinger and Veber, the application of Agl residues has proven effective for constraining the backbone sequence to favor β-turn geometry in various peptides (Freidinger et al., [1980], [1982]; Yu et al., [1988]; Zhang et al., [1996]; Aube, [1999]; Perdih and Kikelj, [2006]; Valle et al., [2009]). I ...

Here are results for eleven substances from publication PMC6381024, “Probing Anti-inflammatory Properties Independent of NF-κB Through Conformational Constraint of Peptide-Based Interleukin-1 Receptor Biased Ligands” (Frontiers in Chemistry, 2019).

“Also recorded” adds a separate entry of the source.

“H-D-Arg-D-Tyr-(3S,4R)-Hgl-D-Val-D-Glu-D-Leu-D-Ala-NH2 [[(3S,4R)-Hgl^3]-1]”: in the assay with pregnant CD-1 mice, the “In vivo PTB (heatmap grade of efficacy)” value came to 4 and the “Activity in delaying labor in the PTB model” value (from here on “Activity in delaying labor”) is recorded as “best activity”. Also, the “Effect on microglial activation / morphology” value in the assay on retinal microglia is “prevented partially the activation of microglia”.

Turning to “H-D-Arg-D-Tyr-(3R,4S)-Hgl-D-Val-D-Glu-D-Leu-D-Ala-NH2 [[(3R,4S)-Hgl^3]-1]”, in the assay with pregnant CD-1 mice, the “In vivo PTB (heatmap grade of efficacy)” value was determined as 4 and the “Activity in delaying labor” value was “best activity”. For the same substance, the “Effect on microglial activation / morphology” value in the assay on retinal microglia was “prevented partially the activation of microglia”.

Take “Kineret: FDA-approved recombinant IL-1 receptor antagonist”: the “In vivo PTB (heatmap grade of efficacy)” value in the assay with pregnant CD-1 mice is listed as 0.

For “H-D-Arg-D-Tyr-(S)-Agl-D-Val-D-Glu-D-Leu-D-Ala-NH2 [[(3S)-Agl^3]-1]”, in the assay with pregnant CD-1 mice, the “In vivo PTB (heatmap grade of efficacy)” value is on record as 4 and the “Activity in delaying labor” value is given as “high potency; also recorded: best activity”. Moreover, in the assay with retinal microglia (Iba-1-positive cell counts), the “Reduction of microglial density” value is recorded as under 20%. In addition, the “Effect on microglial activation / morphology” value in the assay on retinal microglia is listed as “no appreciable effect on microglial morphology”.

Take “H-D-Arg-D-Tyr-(3R,4R)-Hgl-(S)-Val-D-Glu-D-Leu-D-Ala-NH2 [[(3R,4R)-Hgl^3-(S)-Val^4]-1]”: the “In vivo PTB (heatmap grade of efficacy)” value in the assay on pregnant CD-1 mice was determined as 0.

Consider “H-D-Arg-D-Tyr-(R)-Agl-D-Val-D-Glu-D-Leu-D-Ala-NH2 [[(3R)-Agl^3]-1]”, for which, in the assay on pregnant CD-1 mice, the “In vivo PTB (heatmap grade of efficacy)” value was found to be 4 and the “Activity in delaying labor” value is reported as “high potency; also recorded: best activity”. In addition, the “Effect on microglial activation / morphology” value with retinal microglia is “no appreciable effect on microglial morphology”. In assay [1], the “Inhibition of IL-1β-induced thymocyte TF-1 proliferation, compared to peptide 1” value was “significantly diminished activity”.

As to “H-D-Arg-D-Tyr-(S)-Agl-(S)-Val-D-Glu-D-Leu-D-Ala-NH2 [[(3S)-Agl^3-(S)-Val^4]-1]”, the “In vivo PTB (heatmap grade of efficacy)” value in the assay on pregnant CD-1 mice was 0.

Regarding “H-D-Arg-D-Tyr-(R)-Agl-(S)-Val-D-Glu-D-Leu-D-Ala-NH2 [[(3R)-Agl^3-(S)-Val^4]-1]”, the “In vivo PTB (heatmap grade of efficacy)” value with pregnant CD-1 mice came to 0.

With “H-D-Arg-D-Tyr-(3R,4S)-Hgl-(S)-Val-D-Glu-D-Leu-D-Ala-NH2 [[(3R,4S)-Hgl^3-(S)-Val^4]-1]”, the “In vivo PTB (heatmap grade of efficacy)” value in the assay with pregnant CD-1 mice stood at 2.

“H-D-Arg-D-Tyr-(3R,4R)-Hgl-D-Val-D-Glu-D-Leu-D-Ala-NH2 [[(3R,4R)-Hgl^3]-1]”: the “In vivo PTB (heatmap grade of efficacy)” value in the assay with pregnant CD-1 mice was 0.

Turning to “H-D-Arg-D-Tyr-D-Thr-D-Val-D-Glu-D-Leu-D-Ala-NH2 [Peptide 1]”, the “In vivo PTB (heatmap grade of efficacy)” value with pregnant CD-1 mice is on record as 4. Further, in the assay on retinal microglia, the “Effect on microglial activation / morphology” value was “inactive and ramified”.
